Source: patent US9051304B2, “Carboxamide compounds and their use as calpain inhibitors V” (AbbVie Deutschland GmbH & Co. KG, priority 2009, dated 2015)

Assays:
Type in all cases: biochemical
[1] = molecular target: T1, calpain-I isolated from human erythrocytes (Homo sapiens, UniProt P07384); assay: Calpain I enzyme inhibition, kinetic fluorescence assay; details: apparent Ki from IC50 by Cheng-Prussoff; human erythrocyte calpain-I
T1 construct: calpain-I—isolated from human erythrocytes; purchased Calbiochem 208713; host or cells: human erythrocytes (tissue isolate)
T1 sequence (P07384 1-714): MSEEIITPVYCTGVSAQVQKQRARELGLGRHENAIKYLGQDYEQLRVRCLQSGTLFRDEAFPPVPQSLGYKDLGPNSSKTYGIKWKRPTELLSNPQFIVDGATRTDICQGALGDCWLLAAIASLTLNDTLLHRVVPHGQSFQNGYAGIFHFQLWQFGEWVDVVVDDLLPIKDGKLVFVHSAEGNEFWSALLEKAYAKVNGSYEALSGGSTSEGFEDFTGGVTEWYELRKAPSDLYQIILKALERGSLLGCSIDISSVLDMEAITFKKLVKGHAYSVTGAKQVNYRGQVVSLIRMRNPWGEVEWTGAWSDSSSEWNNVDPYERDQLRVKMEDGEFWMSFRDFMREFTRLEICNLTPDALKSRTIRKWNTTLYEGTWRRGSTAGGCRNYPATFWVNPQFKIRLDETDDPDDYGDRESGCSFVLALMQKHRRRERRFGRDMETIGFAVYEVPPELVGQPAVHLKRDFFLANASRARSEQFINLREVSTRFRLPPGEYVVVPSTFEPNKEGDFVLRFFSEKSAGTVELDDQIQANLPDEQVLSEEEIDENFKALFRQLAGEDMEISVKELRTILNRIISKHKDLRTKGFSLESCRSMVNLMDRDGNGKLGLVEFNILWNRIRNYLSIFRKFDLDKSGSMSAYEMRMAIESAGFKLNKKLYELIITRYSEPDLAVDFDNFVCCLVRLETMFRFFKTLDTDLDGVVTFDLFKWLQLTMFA
T1 sequence (P04632 1-268 partner): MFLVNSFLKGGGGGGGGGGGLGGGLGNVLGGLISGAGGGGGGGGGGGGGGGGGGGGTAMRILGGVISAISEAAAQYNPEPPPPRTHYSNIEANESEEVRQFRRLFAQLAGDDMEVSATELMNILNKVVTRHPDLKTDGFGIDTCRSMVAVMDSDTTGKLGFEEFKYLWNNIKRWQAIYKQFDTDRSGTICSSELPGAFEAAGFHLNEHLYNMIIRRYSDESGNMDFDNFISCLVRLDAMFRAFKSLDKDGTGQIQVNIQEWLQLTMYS
Method: (§1) I Enzyme Inhibition in vitro:
(§2) Testing for blockade of the corresponding enzymic activities was carried out by means of kinetic fluorescence assays (excitation 390 nm, emission 460 nm).
(§3) Apparent Ki values were calculated from the experimentally determined IC50 values by the Cheng-Prussoff relation assuming a reversible competitive enzyme inhibition.
20 nM calpain-I—isolated from human erythrocytes (Calbiochem #208713), 100 μM Suc-Leu-Tyr-AMC (Bachem #I-1355) as substrate in buffer with 62 mM imidazole, 0.3 mM CaCl2, 0.10% CHAPS, 0.05% BSA, 1 mM DTT at pH 7.3 and room temperature.

[2] = molecular target: T2, cathepsin B isolated from human liver (Homo sapiens, UniProt P07858); assay: Cathepsin B enzyme inhibition, kinetic fluorescence assay; details: selectivity ratio vs calpain
T2 construct: cathepsin B—isolated from human liver; purchased Calbiochem 219362; host or cells: human liver (tissue isolate)
Method: as §1, §2, §3
0.25 nM cathepsin B—isolated from human liver (Calbiochem #219362), 100 μM Z-Phe-Arg-AMC (Bachem #I-1160) as substrate 50 mM MES, 2 mM EDTA, 0.05% Brij 35, 2.5 mM L-cysteine, pH 6.0, room temperature.

[3] = molecular target: T3, cathepsin K activated from recombinant human procathepsin K (Homo sapiens, UniProt P43235); assay: Cathepsin K enzyme inhibition, kinetic fluorescence assay; details: selectivity ratio vs calpain
T3 construct: purchased Calbiochem 342001; host or cells: E. coli
T3 sequence (P43235 115-329): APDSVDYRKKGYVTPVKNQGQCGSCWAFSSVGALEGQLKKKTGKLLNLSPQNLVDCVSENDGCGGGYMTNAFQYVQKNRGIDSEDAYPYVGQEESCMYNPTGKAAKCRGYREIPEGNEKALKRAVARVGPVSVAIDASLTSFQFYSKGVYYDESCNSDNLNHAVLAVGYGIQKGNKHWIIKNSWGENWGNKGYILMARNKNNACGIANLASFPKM
Method: as §1, §2, §3
3 nM cathepsin K—activated from recombinant human procathepsin K from E. coli (Calbiochem #342001), 10 μM Z-Gly-Pro-Arg-AMC (Biomol #P-142) as substrate in 50 mM MES, 2 mM EDTA, 0.05% Brij 35, 2.5 mM L-cysteine, pH 6.0, room temperature.

[4] = molecular target: T4, cathepsin L isolated from human liver (Homo sapiens, UniProt P07711); assay: Cathepsin L enzyme inhibition, kinetic fluorescence assay; details: selectivity ratio vs calpain
T4 construct: cathepsin L—isolated from human liver; purchased Calbiochem 219402; host or cells: human liver (tissue isolate)
T4 sequence (P07711 114-333): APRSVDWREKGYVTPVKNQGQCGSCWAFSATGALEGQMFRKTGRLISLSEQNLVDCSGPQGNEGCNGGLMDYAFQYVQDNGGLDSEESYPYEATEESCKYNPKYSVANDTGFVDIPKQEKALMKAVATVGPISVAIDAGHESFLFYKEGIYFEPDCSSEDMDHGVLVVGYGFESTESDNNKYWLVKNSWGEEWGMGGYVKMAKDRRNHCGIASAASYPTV
Method: as §1, §2, §3
1 nM cathepsin L—isolated from human liver (Calbiochem #219402), 2 μM Z-Phe-Arg-AMC (Bachem #I-1160) as substrate in 50 mM MES, 2 mM EDTA, 0.05% Brij 35, 2.5 mM L-cysteine, pH 6.0, room temperature.

[5] = molecular target: T5, recombinant human cathepsin S (Homo sapiens, UniProt P25774); assay: Cathepsin S enzyme inhibition, kinetic fluorescence assay; details: selectivity ratio vs calpain
T5 construct: purchased Calbiochem 219343; host or cells: E. coli
T5 sequence (P25774 115-331): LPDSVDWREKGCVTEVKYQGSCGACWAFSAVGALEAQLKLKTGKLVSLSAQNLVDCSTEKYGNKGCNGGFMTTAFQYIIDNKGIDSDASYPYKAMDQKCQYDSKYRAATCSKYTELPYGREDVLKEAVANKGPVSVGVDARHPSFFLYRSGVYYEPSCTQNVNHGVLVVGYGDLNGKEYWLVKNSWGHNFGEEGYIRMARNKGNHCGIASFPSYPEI
Method: as §1, §2, §3
0.5 nM recombinant human cathepsin S from E. coli (Calbiochem #219343), 20 μM Z-Val-Val-Arg-AMC (Bachem #I-1540) as substrate in 50 mM MES, 2 mM EDTA, 0.05% Brij 35, 2.5 mM L-cysteine, pH 6.0, room temperature.

| Structure (SMILES) | Ki [1] [nM] | also measured |
| --- | --- | --- |
| NC(=O)C(=O)C(Cc1ccccc1)NC(=O)c1cccnc1-n1ccc(-c2ccc(F)cc2)n1 (stereo not drawn) [28 (comp.), N-(3-Amino-1-benzyl-2,3-dioxopropyl)-2-[3-(4-fluorophenyl)-1H-pyrazol-1-yl]nicotinamide, reference compound] | < 200 | – |
| CONC(=O)C(=O)C(Cc1ccccc1)NC(=O)c1cccnc1-n1ccc(-c2ccc(F)cc2)n1 (stereo not drawn) [Example 1, 2-[3-(4-Fluorophenyl)-1H-pyrazol-1-yl]-N-[4-(methoxyamino)-3,4-dioxo-1-phenylbutan-2-yl]pyridine-3-carboxamide] | 200 to 300 | – |
| CONC(=O)C(=O)C(Cc1ccccc1)NC(=O)c1cccnc1-n1cc(F)c(-c2ccccc2)n1 (stereo not drawn) [Example 3, 2-(4-Fluoro-3-phenyl-1H-pyrazol-1-yl)-N-(4-(methoxyamino)-3,4-dioxo-1-phenylbutan-2-yl)nicotinamide] | < 200 | – |
| CONC(=O)C(=O)C(Cc1ccccc1)NC(=O)c1cccnc1-n1cc(C)c(-c2ccccc2)n1 (stereo not drawn) [Example 4, N-[4-(Methoxyamino)-3,4-dioxo-1-phenylbutan-2-yl]-2-(4-methyl-3-phenyl-1H-pyrazol-1-yl)pyridine-3-carboxamide] | 300 to 600 | – |
| CONC(=O)C(=O)C(Cc1ccc(F)cc1)NC(=O)c1cccnc1-n1ccc(-c2ccccc2)n1 (stereo not drawn) [Example 5, N-(1-(4-Fluorophenyl)-4-(methoxyamino)-3,4-dioxo-butan-2-yl)-2-(3-phenyl-1H-pyrazol-1-yl)nicotinamide] | 300 to 600 | – |
| CONC(=O)C(=O)C(Cc1cccc(F)c1)NC(=O)c1cccnc1-n1ccc(-c2ccccc2)n1 (stereo not drawn) [Example 6, N-(1-(3-Fluorophenyl)-4-(methoxyamino)-3,4-dioxobutan-2-yl)-2-(3-phenyl-1H-pyrazol-1-yl)nicotinamide] | 200 to 300 | – |
| CONC(=O)C(=O)C(Cc1ccccc1)NC(=O)c1cccnc1-n1cc(Cl)c(-c2ccccc2)n1 (stereo not drawn) [Example 10, 2-(4-Chloro-3-phenyl-1H-pyrazol-1-yl)-N-(4-(methoxyamino)-3,4-dioxo-1-phenylbutan-2-yl)nicotinamide] | 300 to 600 | Sel cat. B (Ki(cathepsin B)/Ki(calpain) ratio) [2]: ∘; Sel cat. K (Ki(cathepsin K)/Ki(calpain) ratio) [3]: + (+ means 2≦Ki(cathepsin K)/Ki(calpain)≦4); Sel cat. L (Ki(cathepsin L)/Ki(calpain) ratio) [4]: ++ (++ means 10<Ki(cathepsin L)/Ki(calpain)≦50); Sel cat. S (Ki(cathepsin S)/Ki(calpain) ratio) [5]: ++ (++ means 10<Ki(cathepsin S)/Ki(calpain)≦50) |
| CONC(=O)C(=O)C(Cc1ccccc1)NC(=O)c1cccnc1-n1ccc(-c2ccc(N3CCOCC3)cc2)n1 (stereo not drawn) [Example 13, N-[4-(Methoxyamino)-3,4-dioxo-1-phenyl-2-butanyl]-2-{3-[4-(4-morpholinyl)phenyl]-1H-pyrazol-1-yl}nicotinamide] | 300 to 600 | Sel cat. B (Ki(cathepsin B)/Ki(calpain) ratio) [2]: ∘; Sel cat. K (Ki(cathepsin K)/Ki(calpain) ratio) [3]: + (+ means 2≦Ki(cathepsin K)/Ki(calpain)≦4); Sel cat. L (Ki(cathepsin L)/Ki(calpain) ratio) [4]: ++ (++ means 10<Ki(cathepsin L)/Ki(calpain)≦50); Sel cat. S (Ki(cathepsin S)/Ki(calpain) ratio) [5]: ++ (++ means 10<Ki(cathepsin S)/Ki(calpain)≦50) |
| CCONC(=O)C(=O)C(Cc1ccc(F)cc1)NC(=O)c1cccnc1-n1ccc(-c2ccccc2)n1 (stereo not drawn) [Example 18, N-[4-(Ethoxyamino)-1-(4-fluorophenyl)-3,4-dioxo-2-butanyl]-2-(3-phenyl-1H-pyrazol-1-yl)nicotinamide] | < 200 | – |
| CCONC(=O)C(=O)C(Cc1ccccc1)NC(=O)c1cccnc1-n1cc(F)c(-c2ccccc2)n1 (stereo not drawn) [Example 19, N-[4-(Ethoxyamino)-3,4-dioxo-1-phenyl-2-butanyl]-2-(4-fluoro-3-phenyl-1H-pyrazol-1-yl)nicotinamide] | < 200 | – |
| O=C(NOCCN1CCOCC1)C(=O)C(Cc1ccccc1)NC(=O)c1cccnc1-n1ccc(-c2ccccc2)n1 (stereo not drawn) [Example 22, N-(4-{[2-(4-Morpholinyl)ethoxy]amino}-3,4-dioxo-1-phenyl-2-butanyl)-2-(3-phenyl-1H-pyrazol-1-yl)nicotinamide] | 200 to 300 | – |
| CONC(=O)C(=O)C(Cc1ccccc1)NC(=O)c1cccnc1-n1ccc(-c2ccccc2F)n1 (stereo not drawn) [Example 25, 2-[3-(2-Fluorophenyl)-1H-pyrazol-1-yl]-N-[4-(methoxyamino)-3,4-dioxo-1-phenyl-2-butanyl]nicotinamide] | < 200 | – |

More lines, main results first:

| Ki [1] [nM] | Structure (SMILES) | also measured |
| --- | --- | --- |
| < 200 | CONC(=O)C(=O)C(Cc1ccccc1)NC(=O)c1cccnc1-n1ccc(-c2ccccc2)n1 (stereo not drawn) [Example 2, N-(4-(Methoxyamino)-3,4-dioxo-1-phenylbutan-2-yl)-2-(3-phenyl-1H-pyrazol-1-yl)nicotinamide] | – |
| < 200 | C=CCONC(=O)C(=O)C(Cc1ccccc1)NC(=O)c1cccnc1-n1ccc(-c2ccccc2)n1 (stereo not drawn) [Example 8, N-(4-(Allyloxyamino)-3,4-dioxo-1-phenylbutan-2-yl)-2-(3-phenyl-1H-pyrazol-1-yl)nicotinamide] | – |
| < 200 | CC(C)ONC(=O)C(=O)C(Cc1ccccc1)NC(=O)c1cccnc1-n1ccc(-c2ccccc2)n1 (stereo not drawn) [Example 11, N-[4-(Isopropoxyamino)-3,4-dioxo-1-phenyl-2-butanyl]-2-(3-phenyl-1H-pyrazol-1-yl)nicotinamide] | – |
| < 200 | CCCONC(=O)C(=O)C(Cc1ccccc1)NC(=O)c1cccnc1-n1ccc(-c2ccccc2)n1 (stereo not drawn) [Example 12, N-[3,4-Dioxo-1-phenyl-4-(propoxyamino)-2-butanyl]-2-(3-phenyl-1H-pyrazol-1-yl)nicotinamide] | – |
| 200 to 300 | O=C(NOC1CCCC1)C(=O)C(Cc1ccccc1)NC(=O)c1cccnc1-n1ccc(-c2ccccc2)n1 (stereo not drawn) [Example 17, N-{4-[(Cyclopentyloxy)amino]-3,4-dioxo-1-phenyl-2-butanyl}-2-(3-phenyl-1H-pyrazol-1-yl)nicotinamide] | – |
| < 200 | O=C(NOC1CCC1)C(=O)C(Cc1ccccc1)NC(=O)c1cccnc1-n1ccc(-c2ccccc2)n1 (stereo not drawn) [Example 20, N-{4-[(Cyclobutyloxy)amino]-3,4-dioxo-1-phenyl-2-butanyl}-2-(3-phenyl-1H-pyrazol-1-yl)nicotinamide] | – |
| < 200 | O=C(NOCC1CC1)C(=O)C(Cc1ccccc1)NC(=O)c1cccnc1-n1ccc(-c2ccccc2)n1 (stereo not drawn) [Example 23, N-{4-[(Cyclopropylmethoxy)amino]-3,4-dioxo-1-phenyl-2-butanyl}-2-(3-phenyl-1H-pyrazol-1-yl)nicotinamide] | – |
